# Source: patent publication US11427605B2, “Crystalline forms of 5-chloro-N4-[-2-(dimethylphosphoryl) phenyl]-N2-{2-methoxy-4-[4-(4-methylpiperazin-1-yl) piperidin-1-yl] phenyl} pyrimidine-2,4-diamine” (ARIAD Pharmaceuticals, Inc., priority 2014, dated 2022)
# Where two headings read alike, the source gives them in different places.
# Experiments:
# [1] = Dynamic vapor sorption (DVS); format: physicochemical; conditions: for Hygroscopicity: general statement
# Procedure: In a […] vapor sorption (DVS) experiment with Form A, the sample was first dried at 0% RH for 6 hours. Then, the relative humidity was cycled from 5% to 95% RH (sorption), then to 5% RH (desorption) at a constant temperature of 25° C., with a hold time of 60 minutes per step.
# In three DVS experiments, the relative humidity was varied as follows:
# Expt. 4: 0% for 6 h→5% for 1 h→15% for 1 h→25-85% gradient over 2 h→95 for 5 h RH
# Variable humidity XRPD = format: physicochemical
# Procedure: The temperature variation rate was 10° C./min.
# The relative humidity was increased from the starting amount, brought up to the maximum, then dried back to the minimum value. The data collection time was 41 min at each step, time starting after equilibration of the relative humidity.
# The peaks shifts were reversible at RH of about 30%. A sample of Form A was then exposed to 80% RH for 15 h. The peaks shifts had occurred after 90 min, and the extent of the shifts remained constant throughout the exposure at 80% RH for 15 h. Upon return to 10% RH, the peaks shifted to their original position. To investigate the amount of water adsorbed, a new sample of Form A was exposed for 2 h at 80% and a TGMS of this sample was measured.
# For Form B, the relative humidity was measured at 30° C. The RH % values measured were 10, 30, 50, 60, 65, 70, 75, and 80%. […] At 80% RH the conversion to Form C was completed. Upon desorption, Form C dehydrates to Form B, starting at about 30% RH. At 10% RH the conversion to Form B was completed.
# For Form C, a hydrate, the relative humidity was measured at 30° C. The experiment was performed starting at the maximum RH and dehydrated, then rehydrated back up to the maximum value. The RH % values measured were 10, 15, 20, 25, 30, 35, 40, 60, and 80%. Upon desorption, Form C dehydrated to Form B, starting at about 25% RH. At 10% RH, the conversion to Form B was complete. Upon sorption, Form B converted to Form C, starting at about 60% RH. At 80% RH the conversion to Form C was complete. The results are consistent with the corresponding experiments of Form B.
# For Form D, a hydrate, the relative humidity was measured at 30° C. The experiment was performed starting at the maximum RH and dehydrated, then rehydrated back up to the maximum value. The RH % values measured were 10, 15, 20, 25, 30, 35, 40, 60, and 80%. […] Form C dehydrated to Form B, starting at about 20% RH. At 10% RH, the conversion to Form B was complete. Upon sorption, Form B converted to Form C, starting at about 40% RH. At 80% RH, the conversion to Form C was complete.
# [2] = not given; remark: listed apart in the source
# [3] = for solid form (XRPD, analyzed wet): slurry in Water, 25° C.
# Procedure: In a second set of slurry experiments, the same amounts of Form A and Form B were weighed into 1.8 mL vials, and charged with a stirring bar. After addition of the solvent, the slurries were placed at 25° C. and 50° C., under stirring. Material from the slurries was sampled at the time points of 2, 4 and 14 days (sampling from the same vial per solvent and per temperature). These materials were analyzed wet by XRPD and digital imaging.
# [4] = Intrinsic dissolution rate (IDR); format: physicochemical
# Procedure: For measuring the intrinsic dissolution rate (IDR), the starting material was tableted using a mini-IDR compression system (pION/Heath Scientific). For preparation of the tablets, approximately 11 mg of material was pressed in the cylindrical hole of a passivated stainless steel die, to a uniform, flat surface, with an exposed area of 0.072 cm^2. The pressure applied was approximately 50 bar for 3-5 min. The sample die was inserted in a cylindrical Teflon rotating disk carrier containing an embedded magnetic stirring bar at its base. The die/stirrer assembly was placed in a flat bottomed glass vial, ready for dissolution analysis.
# The dissolution rate was measured in 20 mL of solvent (medium) and the path length of the UV meter was 2 mm. Applied stirring speed during measurement was 100 rpm. Measurements were performed at 20° C. and 37° C.
# In the first series, the IDR of Forms A and B were determined in monoplicate. […] In FIGS. 30-37, the IDRs are plotted for comparison between the forms and the same medium or between various media and the same form. The IDR of each of Forms A and B in the various media increases with increasingly acidic media (see FIGS. 34-37).
# In several cases, the results were counter-intuitive. […] The results of these additional experiments are plotted in FIGS. 38-42.
# [5] = Dissolution rate from a powdered sample in water; format: physicochemical; conditions: powder, 37° C.
# Procedure: For determining the dissolution rate from a powdered sample, approximately 5 mg of brigatinib (Form A or B) was weighed into a 5 mL dissolution vial and the dissolution probe was inserted into the vial. Subsequently, 4 mL of water was added at the same time the measurement was initiated. The concentration was recorded for 20 h.
# For measuring the dissolution rate from powder, the test was only performed in water for Forms A and B at 37° C., as the solubilities of Forms A and B were […] enough to permit detection.
# Compression tests = format: physicochemical; conditions: 3 and 6 ton/cm^2 for one minute
# Procedure: Compression tests were performed on brigatinib Form A in order to determine whether pressure-induced phase transformations or loss of crystallinity occurred. The press used was an Atlas Manual 25 Ton Hydraulic Press (from SPECAC). Experiments were carried out at 3 and 6 ton/cm^2 for one minute in each case.
# [6] = 24 h
# Procedure: (§1) For each medium, a standard 1.8 mL screw cap vial was charged with circa 40 mg of the starting material, 400 μl of solvent and a magnetic stirring bar (in the cases of chloroform and dichloromethane 200 μl of solvent were used). The vials were subsequently closed and equilibrated at the corresponding temperature for 24 h while stirring. The liquid part was retrieved with a syringe and filtered (0.5 micron filter); the isolated mother liquors were diluted to two dilutions selected according to the calibration curve. Quantities of the API in the diluted solutions were determined via HPLC analysis (DAD). […] Subsequently, the separated solids were measured wet by XRPD to confirm the solid form of which the solubility was measured.
# [7] = ground for 5 hours
# Procedure: Grinding experiments were performed to obtain amorphous brigatinib. […] In a mechanical stress test via grinding, a sample of Form A was ground for 2, 3, 4 and 5 hours. Recovered solids were analyzed by XRPD and HPLC.
# Grinding. Two grinding experiments were performed on samples of Form A with two different durations (30 and 60 min) at a frequency of 30 Hz. […] Mechanical stress via grinding experiments were also performed, with grinding times of 2, 3, 4, and 5 hours.
# physchem [8] = conditions: thermodynamic from solid; for solubility at 24 h: Solub
# Procedure: as §1
# physchem [9] = conditions: thermodynamic from solid
# [10] = 30° C., sample started as the labelled form
# [11] = VT-XRPD, sample started as the labelled form
# [12] = 37 °C, pH 1, simulated gastric fluid
smiles,measurement,setting,value
"COc1cc(N2CCC(N3CCN(C)CC3)CC2)ccc1Nc1ncc(Cl)c(Nc2ccccc2P(C)(C)=O)n1 [Form B, brigatinib]",Solid form after DVS cycle (XRPD),[1]; Expt. 1 (5%→95%→65% RH),hydrated Form C
same,Water adsorbed during sorption,"[1]; Expt. 1 (5%→95%→65% RH), between 45-95% RH",2.26 molecules of water
same,Change in mass during desorption after about 75% RH,[1]; Expt. 2,about 5.2%
same,Gained mass during desorption until about 25% RH,[1]; Expt. 2,4.2%
same,Mass increase at 85% RH during desorption,[1]; Expt. 2,17.4%
same,Maximum change in mass as water molecules,[1]; Expt. 2,5.6 water molecules
same,Water molecules during desorption after about 75% RH,[1]; Expt. 2,about 1.7 water molecules
same,Water molecules during desorption until about 25% RH,[1]; Expt. 2,1.4 water molecules
same,Solid form after DVS cycle (XRPD),[1]; Expt. 2 (5%→95%→5% RH),mixture of Forms B and C
same,"Mass change, first sorption step","[1]; Expt. 2 (5%→95%→5% RH), between 45-85% RH",6.45%
same,"Water molecules, first sorption step","[1]; Expt. 2, between 45-85% RH",2.1 water molecules
same,"Total change in mass, second sorption step","[1]; Expt. 2, between 85% and 95% RH",16.7%
same,Total change in mass at 95% RH,[1]; Expt. 3,15.88%
same,Total change in mass at 95% RH as water molecules,[1]; Expt. 3,5.15 water molecules
same,Solid form after DVS cycle (XRPD),[1]; Expt. 3 (5%→95% RH),Forms B+C
same,"Change in mass, first step","[1]; Expt. 3 (5%→95% RH), between 45-85% RH",5.59%
same,"Water molecules, first step","[1]; Expt. 3, between 45-85% RH",1.8 water molecules
same,Maximum change in mass as water molecules,[1]; Expt. 4,7.2 water molecules
same,Solid form after DVS cycle (XRPD),[1]; Expt. 4,Forms C+D
same,Maximum change in mass,[1]; Expt. 4 (longer equilibration; up to 95% RH for 5 h),22.2%
same,Hygroscopicity,[1],hygroscopic
same,Humidity level at which Form B converts to the hydrated Forms C and D,"Variable humidity XRPD; 30° C., reversible",above 60 % RH
same,RH at which Form B starts to convert to hydrated Form C (sorption),Variable humidity XRPD; [10],about 65 % RH
same,RH at which Form C starts to dehydrate to Form B (desorption),Variable humidity XRPD; [10],about 30 % RH
same,RH at which conversion to Form B was complete (desorption),Variable humidity XRPD; [10],10 % RH
same,RH at which conversion to Form C was complete (sorption),Variable humidity XRPD; [10],80 % RH
same,Temperature at which (partial) conversion to Form A was observed,[11],150 °C
same,Temperature at which conversion to Form A was complete,[11],155 °C
same,Temperature of solid-solid transition to Form A,"ambient humidity, increasing temperature, not reversible",about 150 °C
same,Solid form after humidity exposure,[2]; 90% RH for one day,converted to a mixture of Forms C and D
same,"Solid form conversion on slurrying (XRPD, wet)","[2]; room temperature, water, HCl buffer of pH 1.0",converted to the heptahydrate Form D after 45 min
same,"Solid form conversion in slurry with Form A (XRPD, wet)","[3]; all organic solvents and water at 37° C., sampled at 2, 4 and 14 days",converted to Form A
same,"Solid form conversion in slurry with Form A (XRPD, wet)","[3]; water at 25° C. (aqueous environment), 2 and 4 days",converted to Form D
"COc1cc(N2CCC(N3CCN(C)CC3)CC2)ccc1Nc1ncc(Cl)c(Nc2ccccc2P(C)(C)=O)n1 [Form A, brigatinib]",Amount that could be dissolved in the stomach together with a 200 ml glass of water,[4]; numbers are only indicative,about 50 mg
same,Concentration reached in IDR measurement,"[4]; pH 1.0 and SGF, within 5 min",~250 µg/mL
same,Solid form stability when slurried (IDR experiments),"[4]; water, SGF, and pH 1.0 aqueous buffer",remains stable
same,Concentration at 10 min,[5],70 µg/mL
same,Concentration at 20 h,[5],140 µg/mL
same,Hygroscopicity (DVS),"[1]; 5% to 95% RH, then to 5% RH, 25° C., 60 minutes per step",not hygroscopic
same,Hygroscopicity,[1],not hygroscopic
same,Phase transformation under pressure (XRPD),Compression tests,no phase transitions or peak shifts
same,Purity by HPLC after compression,Compression tests,comparable to that of the starting material
same,Phase transition with humidity (VH-XRPD),Variable humidity XRPD; 30 and 60° C.,did not show any phase transition
same,Mass loss by TGMS after humidity exposure (water adsorbed),Variable humidity XRPD; exposed for 2 h at 80% RH,0.35%
same,Water molecules adsorbed after humidity exposure,Variable humidity XRPD; exposed for 2 h at 80% RH,0.1 water molecules
same,Solub,[6],0.1 ± 0.0 mg/mL
same,Solid state after grinding (XRPD),[7],almost completely amorphous
same,Phase transformation on heating (VT-XRPD),25 to 200° C.,did not reveal any phase transformation
same,"solid form (XRPD, analyzed wet)",[3]; 2 Days,A + D
same,"solid form (XRPD, analyzed wet)",[3]; 4 days,A + D
same,solubility at 24 h,"physchem [8]; 25 °C, pH 1, simulated gastric fluid",60.4 ± 2.9 mg/mL
same,solubility at 24 h,"physchem [8]; 25 °C, pH 4.5, aqueous buffer",24.4 ± 1.2 mg/mL
same,solubility at 24 h,"physchem [8]; 25 °C, pH 6.8, aqueous buffer",8.6 ± 1.4 mg/mL
same,solubility at 24 h,"physchem [8]; 25 °C, water",0.11 mg/mL
same,solubility at 24 h,physchem [8]; [12],70.6 ± 1.5 mg/mL
same,solubility,physchem [8]; [12],70 mg/mL
same,solubility at 24 h,"physchem [8]; 37 °C, pH 4.5, aqueous buffer",26 mg/mL
same,solubility,"physchem [8]; 37 °C, pH 4.5, aqueous buffer",26 mg/mL
same,solubility,"physchem [8]; 37 °C, pH 6.5, aqueous buffer",6 mg/mL
same,solubility at 24 h,"physchem [8]; 37 °C, pH 6.8, aqueous buffer",6.2 ± 0.1 mg/mL
same,solubility at 24 h,"physchem [8]; 37 °C, simulated gastric fluid",51.7 ± 0.6 mg/mL
same,solubility,physchem [8]; simulated gastric fluid,52 mg/mL
same,solubility,"physchem [9]; pH 1.7, simulated gastric fluid",177 mg/mL
same,solubility,"physchem [9]; pH 2.4, aqueous buffer",329 mg/mL
same,solubility,"physchem [9]; pH 3.6, aqueous buffer",173 mg/mL
same,solubility,"physchem [9]; pH 6.2, aqueous buffer",8 mg/mL
same,solubility,"physchem [9]; pH 7.2, aqueous buffer",11 mg/mL
